# According to US11555012B2 (Nimbus Artemis, Inc., priority 2018, dated 2023):
# Target: ACL (Homo sapiens (Human), UniProt P53396)
# Test: ADP-Glo Assay
# Conditions: not given
# ACL, sequence (P53396 other isoform, or with tags, fused parts or gaps isoform P53396-2): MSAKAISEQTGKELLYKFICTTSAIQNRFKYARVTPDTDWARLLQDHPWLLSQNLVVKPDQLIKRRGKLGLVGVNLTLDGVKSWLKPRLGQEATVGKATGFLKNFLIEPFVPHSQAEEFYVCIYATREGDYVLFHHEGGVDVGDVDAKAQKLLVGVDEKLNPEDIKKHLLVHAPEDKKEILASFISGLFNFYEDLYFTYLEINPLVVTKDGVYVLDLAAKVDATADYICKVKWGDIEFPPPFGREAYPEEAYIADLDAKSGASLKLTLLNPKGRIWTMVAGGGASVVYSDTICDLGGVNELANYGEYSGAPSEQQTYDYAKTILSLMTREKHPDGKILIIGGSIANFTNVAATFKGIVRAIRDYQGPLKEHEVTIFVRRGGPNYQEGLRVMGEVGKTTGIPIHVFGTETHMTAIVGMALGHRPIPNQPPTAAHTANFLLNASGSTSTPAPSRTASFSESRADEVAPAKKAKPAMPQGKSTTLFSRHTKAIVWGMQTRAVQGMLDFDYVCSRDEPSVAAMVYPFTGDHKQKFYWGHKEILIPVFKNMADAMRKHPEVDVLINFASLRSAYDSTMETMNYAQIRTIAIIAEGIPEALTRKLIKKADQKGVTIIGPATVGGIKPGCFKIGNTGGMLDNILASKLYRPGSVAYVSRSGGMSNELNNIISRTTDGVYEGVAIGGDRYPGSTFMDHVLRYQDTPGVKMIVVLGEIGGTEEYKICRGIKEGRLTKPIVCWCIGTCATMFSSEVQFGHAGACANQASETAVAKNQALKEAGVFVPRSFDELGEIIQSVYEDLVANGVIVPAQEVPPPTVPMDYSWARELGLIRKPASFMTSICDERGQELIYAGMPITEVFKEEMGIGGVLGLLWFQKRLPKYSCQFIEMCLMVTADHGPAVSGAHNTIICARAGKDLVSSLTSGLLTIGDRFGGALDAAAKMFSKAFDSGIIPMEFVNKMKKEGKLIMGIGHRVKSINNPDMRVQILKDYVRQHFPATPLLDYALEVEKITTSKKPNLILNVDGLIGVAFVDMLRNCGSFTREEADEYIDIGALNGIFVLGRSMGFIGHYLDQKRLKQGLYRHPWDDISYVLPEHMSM
row,Compound,IC50
1,"COc1ccccc1S(=O)(=O)Nc1cc(-c2ccccc2)ccc1F [I-441, N-[4-fluoro-[1,1-biphenyl]-3-yl]-2-methoxybenzene-1-sulfonamide]",> 20 µM
2,"O=C(O)c1ccc(-c2ccccc2)cc1NS(=O)(=O)c1cc(Cl)ccc1Cl [I-288, 3-((2,5-dichlorophenyl)sulfonamido)-[1,1′-biphenyl]-4-carboxylic acid]",0.5 to 20 µM
3,"Cn1ncc(-c2ccccc2)c1NS(=O)(=O)c1cc(Cl)cc(Cl)c1O [I-109, 3,5-dichloro-2-hydroxy-N-(1-methyl-4-phenyl-1H-pyrazol-5-yl)benzenesulfonamide]",0.5 to 20 µM
4,"CC(C)(C)OC(=O)COc1ccc(-c2ccccc2)cc1NS(=O)(=O)c1cc(C(F)(F)F)cc(Cl)c1O [I-265, tert-butyl 2-([3-[3-chloro-2-hydroxy-5-(trifluoromethyl)benzenesulfonamido]-[1,1-biphenyl]-4-yl]oxy)acetate]",0.5 to 20 µM
5,"O=S(=O)(Nc1ccccc1Oc1ccccc1)c1cc(Cl)cc(Cl)c1O [I-285, 3,5-dichloro-2-hydroxy-N-(2-phenoxyphenyl)benzene-1-sulfonamide]",0.5 to 20 µM
6,"COc1cccc(-c2ccccc2)c1NS(=O)(=O)c1cc(Cl)cc(Cl)c1O [I-14, 3,5-dichloro-2-hydroxy-N-(3-methoxy-[1,1′-biphenyl]-2-yl)benzenesulfonamide]",0.5 to 20 µM
7,"O=C(O)CCCOc1ccc(-c2ccccc2)cc1NS(=O)(=O)c1cc(Cl)cc(Cl)c1 [I-291, 4-[[3-(3,5-dichlorobenzenesulfonamido)-[1,1-biphenyl]-4-yl]oxy]butanoic Acid]",0.5 to 20 µM
8,"O=S(=O)(Nc1cc(-c2ccccc2)c(F)cc1F)c1cc(Cl)cc(-c2nn[nH]n2)c1 [I-72, 3-chloro-N-(2,4-difluoro-5-phenylphenyl)-5-(2H-1,2,3,4-tetrazol-5-yl)benzene-1-sulfonamide]",0.5 to 20 µM
9,"O=C(Nc1cc(Br)ccc1C(=O)O)c1cc(Cl)cc(Cl)c1 [I-519, 4-bromo-2-(3,5-dichlorobenzamido)benzoic Acid]",0.5 to 20 µM
10,"CS(=O)(=O)c1cc(Cl)cc(S(=O)(=O)Nc2cc(-c3ccccc3)c(F)cc2F)c1 [I-392, 3-chloro-N-(4,6-difluoro-[1,1′-biphenyl]-3-yl)-5-(methylsulfonyl)benzenesulfonamide]",> 20 µM
11,"O=C(O)c1ccc(-c2ccccc2)cc1NS(=O)(=O)c1cc(Cl)cc(Cl)c1F [I-342, 3-((3,5-dichloro-2-fluorophenyl)sulfonamido)-[1,1′-biphenyl]-4-carboxylic Acid]",0.5 to 20 µM
12,"O=S(=O)(Nc1cc(F)ccc1F)c1cc(Cl)cc(Cl)c1O [I-69, 3,5-dichloro-N-(2,5-difluorophenyl)-2-hydroxybenzene-1-sulfonamide]",0.5 to 20 µM
13,"O=C(Nc1cc(-c2ccccc2)ccc1F)c1cc(Cl)cc(Cl)c1O [I-27, 3,5-dichloro-N-(4-fluoro-[1,1′-biphenyl]-3-yl)-2-hydroxybenzamide]",0.5 to 20 µM
14,"COC(=O)c1cccc(S(=O)(=O)Nc2cc(-c3ccccc3)c(F)cc2F)c1 [I-191, methyl 3-([4,6-difluoro-[1,1-biphenyl]-3-yl]sulfamoyl)benzoate]",0.5 to 20 µM
15,"Cc1c(-c2ccccc2)ccc(C(=O)O)c1NS(=O)(=O)c1cc(Cl)cc(C(F)(F)F)c1 [I-365, 3-((3-chloro-5-(trifluoromethyl)phenyl)sulfonamido)-2-methyl-[1,1′-biphenyl]-4-carboxylic Acid]",0.5 to 20 µM
16,"O=S(=O)(Nc1cc(N2CCNCC2)c(F)cc1F)c1cc(Cl)cc(Cl)c1O [I-395, 3,5-dichloro-N-(2,4-difluoro-5-(piperazin-1-yl)phenyl)-2-hydroxybenzenesulfonamide]",> 20 µM
17,"O=C(O)COc1ccc(-c2ccccc2)cc1NS(=O)(=O)c1cc(Cl)cc(Cl)c1 [I-244, 2-[[3-(3,5-dichlorobenzenesulfonamido)-[1,1-biphenyl]-4-yl]oxy]acetic Acid]",0.5 to 20 µM
18,"COc1ccc(C(=O)O)cc1S(=O)(=O)Nc1cc(-c2ccccc2)c(F)cc1F [I-529, 3-(N-(4,6-difluoro-[1,1′-biphenyl]-3-yl)sulfamoyl)-4-methoxybenzoic acid]",> 20 µM
19,"O=C(c1cc(Cl)c(O)c(S(=O)(=O)Nc2ccccc2F)c1)N1CCC1 [I-268, 5-(azetidine-1-carbonyl)-3-chloro-N-(2-fluorophenyl)-2-hydroxybenzene-1-sulfonamide]",0.5 to 20 µM
20,"COC(=O)c1ccnc(NS(=O)(=O)c2cc(Cl)cc(Cl)c2O)c1 [I-525, methyl 2-((3,5-dichloro-2-hydroxyphenyl)sulfonamido)isonicotinate]",> 20 µM

# The next lines start with the values.
row,IC50,Compound
1,0.5 to 20 µM,"COC(=O)c1cc(Cl)c(OC)c(S(=O)(=O)Nc2cc(-c3cccnc3)ccc2OC)c1 [I-42, Methyl 3-chloro-4-methoxy-5-(N-(2-methoxy-5-(pyridine-3-yl)phenyl)sulfamoyl)benzoate]"
2,0.5 to 20 µM,"O=C(Cc1cc(Cl)cc(Cl)c1)Nc1cc(-c2ccccc2)ccc1C(=O)O [I-280, 3-(2-(3,5-dichlorophenyl)acetamido)-[1,1′-biphenyl]-4-carboxylic Acid]"
3,> 20 µM,"N#Cc1ccc(F)c(S(=O)(=O)Nc2cc(-c3ccccc3)ccc2F)c1 [I-418, 5-cyano-2-fluoro-N-(2-fluoro-5-phenylphenyl) benzene-1-sulfonamide]"
4,0.5 to 20 µM,O=S(=O)(Nc1cccc(-n2nccn2)c1)c1cc(Cl)cc(Cl)c1O [I-177]
5,0.5 to 20 µM,COCc1cc(Cl)cc(S(=O)(=O)Nc2cc(-c3ccccc3)ccc2C(=O)O)c1 [I-337]
6,0.5 to 20 µM,"COc1ccc(-c2ccccc2)cc1NS(=O)(=O)c1cc(C(=O)O)cc(Cl)c1OC [I-39, 3-chloro-4-methoxy-5-(N-(4-methoxy-[1,1′-biphenyl]-3-yl)sulfamoyl)benzoic Acid]"
7,0.5 to 20 µM,"COc1ccc(Br)cc1NS(=O)(=O)c1cc(Cl)cc(Cl)c1O [I-4, N-(5-bromo-2-methoxyphenyl)-3,5-dichloro-2-Hydroxybenzenesulfonamide]"
8,0.5 to 20 µM,"COc1ccc(-c2ccccc2)cc1NS(=O)(=O)c1cc(Cl)cc(C(=O)O)c1O [I-3, 5-chloro-2-hydroxy-3-(N-(4-methoxy-[1,1′-biphenyl]-3-yl)sulfamoyl)benzoic Acid]"
9,> 20 µM,"Cn1ccc(Oc2c(Cl)cc(Cl)cc2S(=O)(=O)Nc2cc(-c3ccccc3)ccc2F)n1 [I-443, 3,5-dichloro-N-(4-fluoro-[1,1′-biphenyl]-3-yl)-2-((1-methyl-1H-pyrazol-3-yl)oxy)benzenesulfonamide]"
10,0.5 to 20 µM,"NC(=O)COc1c(Cl)cc(Cl)cc1S(=O)(=O)Nc1cc(-c2ccccc2)ccc1F [I-151, 2-(2,4-dichloro-6-(N-(4-fluoro-[1,1′-biphenyl]-3-yl)sulfamoyl)phenoxy)acetamide]"
11,> 20 µM,"CC(C)S(=O)(=O)Nc1ccc(S(=O)(=O)Nc2cc(-c3ccccc3)ccc2F)cc1F [I-524, 3-fluoro-N-(4-fluoro-[1,1′-biphenyl]-3-yl)-4-((1-methylethyl)sulfonamido)benzenesulfonamide]"
12,0.5 to 20 µM,O=C(O)c1ccc(-c2ccccc2)cc1NS(=O)(=O)c1cccnc1Cl [I-300]
13,0.5 to 20 µM,"O=C(NO)c1ccc(F)c(NS(=O)(=O)c2cc(Cl)cc(Cl)c2O)c1 [I-45, 3-[(3,5-dichloro-2-hydroxybenzene)sulfonamido]-4-fluoro-N-hydroxybenzamide]"
14,0.5 to 20 µM,O=S(=O)(NC1(c2ccc(F)cc2)CC1)c1cc(Cl)cc(Cl)c1O [I-180]
15,> 20 µM,"O=S(=O)(Nc1cc(-c2ccccc2)c(F)cc1F)c1cccc2nsnc12 [I-390, N-(4,6-difluoro-[1,1 biphenyl]-3-yl)benzo[c][1,2,5]thiadiazole-4-sulfonamide]"
16,0.5 to 20 µM,"Cc1c(C(=O)O)cc(Cl)c(O)c1S(=O)(=O)Nc1cc(-c2ccccc2)c(F)cc1F [I-132, 5-chloro-3-([4,6-difluoro-[1,1-biphenyl]-3-yl]sulfamoyl)-4-hydroxy-2-methylbenzoic Acid]"
17,0.5 to 20 µM,"COc1c(Cl)cc(C#N)cc1S(=O)(=O)Nc1cc(-c2ccccc2)ccc1F [I-51, 3-chloro-5-cyano-N-(4-fluoro-[1,1′-biphenyl]-3-yl)-2-methoxybenzenesulfonamide]"
18,> 20 µM,"O=C(COc1c(Br)cc(Cl)cc1S(=O)(=O)N(Cc1ccccc1)c1cc(-c2ccccc2)ccc1F)OCc1ccccc1 [I-420, benzyl 2-(2-(N-benzyl-N-(4-fluoro-[1,1′-biphenyl]-3-yl)sulfamoyl)-6-bromo-4-chlorophenoxy)acetate]"
19,0.5 to 20 µM,CC(C)Oc1ccc(F)cc1NS(=O)(=O)c1cc(Cl)cc(Cl)c1O [I-163]
20,0.5 to 20 µM,"COC(=O)COc1c(Cl)cc(Cl)cc1S(=O)(=O)Nc1cc(-c2ccccc2)c(F)cc1F [I-79, Methyl 2-[2,4-dichloro-6-[(2,4-difluoro-5-phenylphenyl)sulfamoyl]phenoxy]acetate]"
21,0.5 to 20 µM,Cc1c(CNS(=O)(=O)c2cc(Cl)cc(Cl)c2O)n(C)c2ccccc12 [I-181]
22,> 20 µM,"COc1ccc(-c2ccccc2)cc1NS(=O)(=O)c1cc(C(=O)N(C)C)cc(Cl)c1OC [I-434, 3-chloro-4-methoxy-5-(N-(4-methoxy-[1,1′-biphenyl]-3-yl)sulfamoyl)-N,N-dimethylbenzamide]"
23,> 20 µM,"COc1ccc(-c2ccccc2)cc1NS(=O)(=O)c1ccc(C#N)cc1 [I-410, 4-cyano-N-(2-methoxy-5-phenylphenyl)benzene-1-sulfonamide]"
24,0.5 to 20 µM,"COc1ccc(-c2ccccc2)cc1NS(=O)(=O)c1cc(Cl)cc(-c2nn[nH]n2)c1 [I-38, 3-chloro-N-(2-methoxy-5-phenylphenyl)-5-(2H-1,2,3,4-tetrazol-5-yl)benzene-1-sulfonamide]"
25,> 20 µM,"O=C(O)c1ccc(NS(=O)(=O)c2cc(Cl)cc(Cl)c2O)cc1Cl [I-412, 2-chloro-4-[(3,5-dichloro-2-hydroxybenzene)sulfonamido]benzoic acid]"

# Same assay, conditions: read-out: ACL-ADP-Glo (IC50); 3 nM ACL, 15 μM ATP, 3 μM CoA, 300 μM Citrate
row,IC50,Compound
1,0.5 to 20 µM,"CN(C)C(=O)c1cc(Cl)c(O)c(S(=O)(=O)Nc2cc(-c3ccccc3)ccc2C(=O)O)c1 [I-518, 3-((3-chloro-5-(dimethylcarbamoyl)-2-hydroxyphenyl)sulfonamido)-[1,1′-biphenyl]-4-carboxylic Acid]"
2,0.5 to 20 µM,"O=C(O)c1ccc(-c2ccccc2)cc1NCc1cc(Cl)cc(Cl)c1 [I-371, 3-((3,5-dichlorobenzyl)amino)-[1,1′-biphenyl]-4-carboxylic Acid]"
